Results as given in EP4796557A1, “POLYPEPTIDE, BIOACTIVE CONJUGATE, AND PREPARATION METHOD THEREFOR AND USE THEREOF” (priority 2023, dated 2025).
Numbered stars: 1 amine (or outer) side, 2 acyl side, 3 side chain; on linkers, the order of the positions; unused ones are H or OH. Square brackets hold non-standard residues; d marks the D form. Peptide text beside a SMILES is read from it. * marks the point of attachment. Exatecan = CC[C@@]1(O)C(=O)OCc2c1cc1n(c2=O)Cc2c-1nc1cc(F)c(C)c3c1c2[C@@H](N*)CC3; Hexanoyl(6-maleimido) = O=C1C=CC(=O)N1CCCCCC(=O)*; PABC = O=C(OCc1ccc(N[*:1])cc1)[*:2]; Cit = NC(=O)NCCC[C@H](N)C(=O)O; X1 = CN(C)CC(N[*:1])C(=O)[*:2]

Experiments:
MMP2 [1] = molecular target: T1, MMP2 (Homo sapiens, UniProt P08253); experiment: Enzymolysis assay of the linker-payload by MMP2 (LC-MS); assay type: biochemical; details: linker-payload 100 µmol, activated MMP2 1 µg/mL, 37°C, 24 h
T1 sequence (P08253 110-660): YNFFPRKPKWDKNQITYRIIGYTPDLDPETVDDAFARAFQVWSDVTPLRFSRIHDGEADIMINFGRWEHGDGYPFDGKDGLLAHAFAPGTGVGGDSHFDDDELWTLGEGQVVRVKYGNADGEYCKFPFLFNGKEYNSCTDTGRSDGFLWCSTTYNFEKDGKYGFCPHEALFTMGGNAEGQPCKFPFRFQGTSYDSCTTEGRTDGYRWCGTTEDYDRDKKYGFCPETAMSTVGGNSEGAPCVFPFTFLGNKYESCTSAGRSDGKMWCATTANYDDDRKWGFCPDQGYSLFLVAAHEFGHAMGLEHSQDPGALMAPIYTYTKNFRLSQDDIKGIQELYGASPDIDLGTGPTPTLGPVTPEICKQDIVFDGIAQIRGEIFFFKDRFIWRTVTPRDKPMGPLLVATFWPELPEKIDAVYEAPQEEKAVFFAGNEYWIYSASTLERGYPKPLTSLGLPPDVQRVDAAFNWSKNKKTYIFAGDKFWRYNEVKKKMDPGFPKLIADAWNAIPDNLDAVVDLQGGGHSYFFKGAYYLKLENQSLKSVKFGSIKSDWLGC
Experimental: MMP2 having a final concentration of 200 µg/mL was mixed with 4 mM APMA at a ratio of 1:1 and placed in a 37°C water bath and incubated for 24 h to activate the MMP2 enzyme solution. Subsequently, the linker-payload having a final concentration of 100 µmol was incubated with the activated MMP2 solution having a final concentration of 1 µg/mL in a 37°C water bath for 24 h. After the reaction was complete, LC-MS analysis was performed.

MMP9 [2] = molecular target: T2, MMP9 (Homo sapiens, UniProt P14780); experiment: Enzymolysis assay of the linker-payload by MMP9 (LC-MS); assay type: biochemical; details: linker-payload 100 µmol, activated MMP9 0.2 µg/mL, 37°C, 24 h
Experimental: MMP9 having a final concentration of 200 µg/mL was mixed with 4 mM APMA at a ratio of 1:1 and placed in a 37°C water bath and incubated for 24 h to activate the MMP9 enzyme solution. Subsequently, the linker-payload having a final concentration of 100 µmol was incubated with the activated MMP9 solution having a final concentration of 0.2 µg/mL in a 37°C water bath for 24 h. After the reaction was complete, LC-MS analysis was performed.

MMP2 [3] = molecular target: T1, MMP2; experiment: Enzymolysis assay of polypeptides by MMP2 (RP-HPLC); assay type: biochemical; details: test polypeptide 100 µmol, activated MMP2, 37°C, 4 h
Experimental: (§1) First, MMP2 or MMP9 enzyme solution having a final concentration of 200 µg/mL was mixed with 4 mM APMA at a ratio of 1:1, placed in a 37°C water bath and incubated for 24 h to activate the MMP2 or MMP9 enzyme solution. Subsequently, the test polypeptide having a final concentration of 100 µmol was incubated with the activated MMP2 or MMP9 enzyme solution in a 37°C water bath for 4 h. After the reaction was complete, an equal volume of acetonitrile solution was added thereto, followed by RP-HPLC analysis.
(§2) The enzymolysis efficiency of the polypeptide was calculated based on the peak areas of the target peak before and after enzymolysis. The formula is as follows: Enzymolysis efficiency = […] [formula]

MMP9 [4] = molecular target: T2, MMP9; experiment: Enzymolysis assay of polypeptides by MMP9 (RP-HPLC); assay type: biochemical; details: polypeptide 100 µmol with activated MMP9, 37°C, 4 h, RP-HPLC peak areas
Experimental: as §1, §2

[5] = background statement; cited from earlier work

T2 sequence (P14780 107-707 limits assumed, species assumed): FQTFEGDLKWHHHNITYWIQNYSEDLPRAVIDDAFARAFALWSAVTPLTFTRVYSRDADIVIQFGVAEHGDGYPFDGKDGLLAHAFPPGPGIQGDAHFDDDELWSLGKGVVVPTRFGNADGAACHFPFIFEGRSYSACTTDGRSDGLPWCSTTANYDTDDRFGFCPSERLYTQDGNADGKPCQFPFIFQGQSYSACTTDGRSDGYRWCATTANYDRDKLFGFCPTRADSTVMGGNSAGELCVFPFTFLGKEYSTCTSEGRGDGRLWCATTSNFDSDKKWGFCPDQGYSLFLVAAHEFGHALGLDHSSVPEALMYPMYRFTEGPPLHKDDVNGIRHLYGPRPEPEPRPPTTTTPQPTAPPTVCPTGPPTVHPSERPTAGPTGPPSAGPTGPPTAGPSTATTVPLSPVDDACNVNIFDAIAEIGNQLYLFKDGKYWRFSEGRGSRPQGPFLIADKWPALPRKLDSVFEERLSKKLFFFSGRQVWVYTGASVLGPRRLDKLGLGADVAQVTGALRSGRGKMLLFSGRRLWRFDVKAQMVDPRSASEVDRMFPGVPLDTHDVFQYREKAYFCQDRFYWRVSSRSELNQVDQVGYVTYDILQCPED

Row | Molecule | MMP2 enzymolysis efficiency (%) (MMP2 [1]) | MMP9 enzymolysis efficiency (%) (MMP9 [2]) | Enzymolysis efficiency (%) (MMP2 [3]) | Enzymolysis efficiency (%) (MMP9 [4]) | half-life in plasma [5]
1 | CC[C@@]1(O)C(=O)OCc2c1cc1n(c2=O)Cc2c-1nc1cc(F)c(C)c3c1c2[C@@H](NC(=O)OCc1ccc(NC(=O)[C@H](CCCNC(N)=O)NC(=O)[C@@H](NC(=O)[C@H](CC(C)C)NC(=O)[C@H](CC(N)=O)NC(=O)[C@H](CCCNC(N)=O)NC(=O)[C@@H]2CCCN2C(=O)CCCCCN2C(=O)C=CC2=O)C(C)C)cc1)CC3 [Compound L064-P005, MC-PCitNLVCit-PAB-DX8951] ({Hexanoyl(6-maleimido)}-P[Cit]NLV[Cit][PABC]-Exatecan) | 42.89% | 52.70% | – | – | –
2 | CC(=O)N[C@@H](CO)C(=O)N1CCC[C@H]1C(=O)N[C@@H](CCCNC(N)=O)C(=O)NCC(=O)N[C@@H](CC(C)C)C(=O)N[C@H](C(=O)N[C@@H](CCCNC(N)=O)C(N)=O)C(C)C [Compound 2-P22] (Ac-SP[Cit]GLV[Cit]-NH2) | – | – | 55.25% | 73.74% | –
3 | Ac-IPVSLGGFG-NH2 [Compound 1-P16] | – | – | 13.02% | 13.30% | –
4 | CC(=O)N1CCC[C@H]1C(=O)N[C@@H](CCCNC(N)=O)C(=O)NCC(=O)N[C@@H](CC(C)C)C(=O)N[C@H](C(=O)N[C@@H](CCCNC(N)=O)C(N)=O)C(C)C [Compound 2-P5] (Ac-P[Cit]GLV[Cit]-NH2) | – | – | 61.03% | 68.91% | –
5 | CC(=O)NCC(=O)N1CCC[C@H]1C(=O)N[C@@H](C)C(=O)N[C@@H](CC(N)=O)C(=O)N[C@@H](CC(C)C)C(=O)N[C@H](C(=O)N[C@@H](CCCNC(N)=O)C(N)=O)C(C)C [Compound 2-P26] (Ac-GPANLV[Cit]-NH2) | – | – | 100.00% | 84.35% | –
6 | CC(=O)N[C@@H](CO)C(=O)N1CCC[C@H]1C(=O)N[C@@H](CCCNC(=N)N)C(=O)N[C@@H](CC(N)=O)C(=O)N[C@@H](CC(C)C)C(=O)N[C@H](C(=O)N[C@@H](CCCNC(N)=O)C(N)=O)C(C)C [Compound 2-P21] (Ac-SPRNLV[Cit]-NH2) | – | – | 70.46% | 95.84% | –
7 | CC(=O)N[C@@H](CO)C(=O)N1CCC[C@H]1C(=O)N[C@@H](CCCNC(N)=O)C(=O)N[C@@H](CO)C(=O)N[C@@H](CC(C)C)C(=O)N[C@H](C(=O)N[C@@H](CCCNC(N)=O)C(N)=O)C(C)C [Compound 2-P23] (Ac-SP[Cit]SLV[Cit]-NH2) | – | – | 33.63% | 59.39% | –
8 | Ac-GPASLGGFG-NH2 [Compound 1-P18] | – | – | 68.38% | 9.10% | –
9 | CC(=O)NCC(=O)N1CCC[C@H]1C(=O)N[C@@H](CCCNC(N)=O)C(=O)NCC(=O)N[C@@H](CC(C)C)C(=O)N[C@H](C(=O)N[C@@H](CCCNC(N)=O)C(N)=O)C(C)C [Compound 2-P10] (Ac-GP[Cit]GLV[Cit]-NH2) | – | – | 71.24% | 80.34% | –
10 | CC(=O)N[C@@H](Cc1c[nH]cn1)C(=O)N1CCC[C@H]1C(=O)N[C@@H](CCCNC(=N)N)C(=O)N[C@@H](CO)C(=O)N[C@@H](CC(C)C)C(=O)N[C@H](C(=O)N[C@@H](CCCNC(N)=O)C(N)=O)C(C)C [Compound 2-P13] (Ac-HPRSLV[Cit]-NH2) | – | – | 57.42% | 81.06% | –
11 | CC(=O)NCC(=O)N1CCC[C@H]1C(=O)N[C@@H](CCCNC(=N)N)C(=O)NCC(=O)NC(CN(C)C)C(=O)N[C@H](C(=O)N[C@@H](CCCNC(N)=O)C(N)=O)C(C)C (stereo partly drawn) [Compound 2-P27] (Ac-GPRG[X1]V[Cit]-NH2) | – | – | 9.00% | 10.53% | –
12 | CC(=O)NCC(=O)N1CCC[C@H]1C(=O)N[C@@H](CCCNC(=N)N)C(=O)N[C@@H](CC(N)=O)C(=O)N[C@@H](CC(C)C)C(=O)N[C@H](C(=O)N[C@@H](CCCNC(N)=O)C(N)=O)C(C)C [Compound 2-P9] (Ac-GPRNLV[Cit]-NH2) | – | – | 77.00% | 100.00% | –
13 | Trodelvy | – | – | – | – | less than 24 hours
14 | CC(=O)N[C@@H](Cc1c[nH]cn1)C(=O)N1CCC[C@H]1C(=O)N[C@@H](CCCNC(=N)N)C(=O)NCC(=O)N[C@@H](CC(C)C)C(=O)N[C@H](C(=O)N[C@@H](CCCNC(N)=O)C(N)=O)C(C)C [Compound 2-P12] (Ac-HPRGLV[Cit]-NH2) | – | – | 77.58% | 95.73% | –
15 | Ac-GPRGLGGFG-NH2 [Compound 1-P23] | – | – | 89.54% | 84.66% | –
16 | CC[C@@]1(O)C(=O)OCc2c1cc1n(c2=O)Cc2c-1nc1cc(F)c(C)c3c1c2[C@@H](NC(=O)OCc1ccc(NC(=O)[C@H](CCCNC(N)=O)NC(=O)[C@@H](NC(=O)[C@H](CC(C)C)NC(=O)[C@H](CO)NC(=O)[C@H](C)NC(=O)[C@@H]2CCCN2C(=O)CCCCCN2C(=O)C=CC2=O)C(C)C)cc1)CC3 [Compound L065-P005, MC-PASLVCit-PAB-DX8951] ({Hexanoyl(6-maleimido)}-PASLV[Cit][PABC]-Exatecan) | 32.73% | 27.13% | – | – | –
17 | CC(=O)NCC(=O)N1CCC[C@H]1C(=O)N[C@@H](CO)C(=O)NCC(=O)N[C@@H](CC(C)C)C(=O)N[C@H](C(=O)N[C@@H](CCCNC(N)=O)C(N)=O)C(C)C [Compound 1-P10] (Ac-GPSGLV[Cit]-NH2) | – | – | 75.95% | 27.93% | –
18 | CC(=O)NCC(=O)N1CCC[C@H]1C(=O)N[C@@H](C)C(=O)N1CCC[C@H]1C(=O)N[C@@H](CC(C)C)C(=O)N[C@H](C(=O)N[C@@H](CCCNC(N)=O)C(N)=O)C(C)C [Compound 2-P25] (Ac-GPAPLV[Cit]-NH2) | – | – | 85.08% | 45.37% | –
19 | Ac-GPAGLGGFG-NH2 [Compound 1-P19] | – | – | 89.82% | 29.28% | –
20 | CC(=O)N1CCC[C@H]1C(=O)N[C@@H](CCCNC(N)=O)C(=O)N1CCC[C@H]1C(=O)N[C@@H](CC(C)C)C(=O)N[C@H](C(=O)N[C@@H](CCCNC(N)=O)C(N)=O)C(C)C [Compound 2-P6] (Ac-P[Cit]PLV[Cit]-NH2) | – | – | 36.21% | 36.08% | –
21 | CC(=O)NCC(=O)N1CCC[C@H]1C(=O)N[C@@H](CO)C(=O)N[C@@H](C)C(=O)N[C@@H](CC(C)C)C(=O)N[C@H](C(=O)N[C@@H](CCCNC(N)=O)C(N)=O)C(C)C [Compound 1-P13] (Ac-GPSALV[Cit]-NH2) | – | – | 90.13% | 45.08% | –
22 | CC(=O)N[C@@H](CO)C(=O)N1CCC[C@H]1C(=O)N[C@@H](CCCNC(=N)N)C(=O)NCC(=O)N[C@@H](CC(C)C)C(=O)N[C@H](C(=O)N[C@@H](CCCNC(N)=O)C(N)=O)C(C)C [Compound 2-P18] (Ac-SPRGLV[Cit]-NH2) | – | – | 86.03% | 93.84% | –
23 | CC(=O)NCC(=O)N1CCC[C@H]1C(=O)N[C@@H](CCCNC(=N)N)C(=O)NCC(=O)N[C@@H](CC(C)C)C(=O)N[C@H](C(=O)N[C@@H](CCCNC(N)=O)C(N)=O)C(C)C [Compound 1-P11] (Ac-GPRGLV[Cit]-NH2) | – | – | 86.82% | 81.51% | –
